Residues, ends and D or L forms follow the SMILES beside them.
What was measured:
[1] = test system: mouse renal ischemia reperfusion; assay: Mice renal failure test (mouse renal ischemia reperfusion), mortality; assay type: in vivo; details: score = animals died - animals in group
Description: Dipeptides are tested and compared with PBS (control) in a double blind animal study for a dipeptide's relative ability to aid recovery in a mouse renal ischemia reperfusion or mouse renal failure test. Under inhalation anesthesia, the left kidney with its artery and vein is isolated and occluded for 25 minutes using a microvascular clamp. During surgery, animals are placed on a heating path to maintain body temperature at 37°C. Five minutes before placing the clamp, and 5 minutes before releasing the clamp, dipeptide, dissolved in 0.1 mL of sterile saline, is administered intravenously. After reperfusion of the left kidney the right kidney is removed. Kidney function is assessed by measuring blood urea nitrogen before clamping, and at 2, 24, and 72 hours after reperfusion, by determining mRNA levels for cytokine expression, and such.
In short, in this test, the mice are anesthetized, and one kidney from each mouse is removed. The other kidney is tied off for 25 minutes, and the ischemia levels in the kidney are allowed to increase. Both before and/or after tying off, GLN-containing dipeptide is administered to 8 to 10 different mice per group (dosages vary per group from for example 0.7, 3, 7, 30 and 70 mg dipeptide / kg body mass intravenously). The mortality of the mice is determined for each oligopeptide as well as for example the BUN or creatinine concentration at two hours, 24 hours and 72 hours. Two dipeptides AQ and LQ are for example tested in a dose-response manner in the mice renal failure test. Dipeptides are tested at dosages of 0.7, 3, 7, 30 and 70 mg/kg body weight given intravenously.

Hemorrhagic shock = assay: Rat hemorrhagic shock study, recovery of mean arterial pressure; assay type: in vivo, Rats; details: AQ intravenously 0.7 to 70 mg/kg with Ringer's lactate during resuscitation; compared with the LR group
Description: (§1) Methods: Rats are randomly assigned to groups. Under isoflurane anesthesia, the femoral artery and vein are cannulated. Hemorrhagic shock is induced by withdrawing blood through the arterial cannula until the mean arterial pressure (MAP) is 25-30 mm Hg and maintained at the level for 30 minutes with further withdrawals. Resuscitation is carried out by giving 21 mL/kg Ringer's lactate (LR) with or without the administration of AQ (intravenously at ranges from 0.7 to 70 mg/kg) and returning the shed blood. Controls are normal (anesthesia only), sham (surgical preparation), and shock (preparation and shock). Rats (n = 80, 10 per group) are killed 30 minutes after completion of resuscitation. Liver samples are collected, and total RNA is isolated for reverse transcription-polymerase chain reaction analysis of mRNA (TNF-a). […] Increased expression of liver mRNA for TNF-alpha is seen after hemorrhagic shock and resuscitation.

TNF-alpha = assay: Rat hemorrhagic shock study, liver mRNA by reverse transcription-polymerase chain reaction; assay type: in vivo, Rats; details: AQ intravenously 0.7 to 70 mg/kg during resuscitation; liver samples 30 minutes after completion of resuscitation
Description: as §1

Structure (SMILES) | Mortality in mice renal failure experiment 24h ([1]; 0.7 mg/kg intravenously) | Mortality in mice renal failure experiment 72h ([1]; 0.7 mg/kg intravenously) | Mortality in mice renal failure experiment 24h ([1]; 3.0 mg/kg intravenously) | Mortality in mice renal failure experiment 72h ([1]; 3.0 mg/kg intravenously) | Mortality in mice renal failure experiment 24h ([1]; 7.0 mg/kg intravenously) | Mortality in mice renal failure experiment 72h ([1]; 7.0 mg/kg intravenously) | Mortality in mice renal failure experiment 24h ([1]; 30.0 mg/kg intravenously) | Mortality in mice renal failure experiment 72h ([1]; 30.0 mg/kg intravenously) | Mortality in mice renal failure experiment 24h ([1]; 70.0 mg/kg intravenously) | Mortality in mice renal failure experiment 72h ([1]; 70.0 mg/kg intravenously) | MAP recovery (Hemorrhagic shock) | expression of liver mRNA for TNF-alpha (TNF-alpha)
C[C@H](N)C(=O)N[C@@H](CCC(N)=O)C(=O)O [AQ, alanyl-glutamine] (H-Ala-Gln-OH) | 0-9 | 2-9 | 0-10 | 1-9 | 0-10 | 0-9 | 0-8 | 1-10 | 0-9 | 1-9 | recovers more quickly | reduces mRNA expression for TNF-alpha
CC(C)C[C@H](N)C(=O)N[C@@H](CCC(N)=O)C(=O)O [LQ, leucyl-glutamine] (H-Leu-Gln-OH) | 0-9 | 2-9 | 0-10 | 1-9 | 1-10 | 1-10 | 0-10 | 0-9 | 0-8 | 3-9 |  | 

Reference: patent EP2106791A1, “Glutamine or glutamine-containing dipeptide in a specific dosage for the treatment of inflammation” (Biotempt B.V., priority 2008, dated 2009)
